{"source": "patent US8846711B2", "about": "“Heterocyclic acrylamides and their use as pharmaceuticals” (Fab Pharma S.A.S., priority 2009, dated 2014)", "key": {"[1]": {"tested_on": "Staphylococcus aureus NRS22", "assay": "MIC determination using agar dilution method", "assay_type": "cell-based", "settings": "MRSA / NRS 22, read-out: MIC (μg/ml) NRS22", "experimental": "(§1) Antibacterial activity was determined on strains from Mutabilis internal collection.\n(§2) This protocol is compliant with Clinical Laboratory Standards Institute (CLSI) methodology as described in M7-A7 document of the CLSI. The compound to be tested is incorporated into Mueller-Hinton Agar medium (Fluka, Reference 70191) at one concentration per plate according to a geometric series of reason 2. Plates are inoculated with mid-log phase bacteria (inoculum=1×10^4 cfu/spot) and incubated overnight at 35° C. […] All manipulations, but compound handling (in pure DMSO), are performed under sterile conditions. The final DMSO concentration of DMSO in the plates is 2%. Vancomycin is used as reference."}, "[2]": {"tested_on": "Staphylococcus aureus NRS482", "assay": "MIC determination using agar dilution method", "assay_type": "cell-based", "settings": "MRSA / NRS 482, read-out: MIC (μg/ml) NRS482", "experimental": "as §1, §2"}, "[3]": {"tested_on": "Staphylococcus aureus NRS192", "assay": "MIC determination using agar dilution method", "assay_type": "cell-based", "settings": "MRSA / NRS 192, read-out: MIC (μg/ml) NRS192", "experimental": "as §1, §2"}, "[4]": {"tested_on": "Staphylococcus aureus NRS123", "assay": "MIC determination using agar dilution method", "assay_type": "cell-based", "settings": "MRSA / NRS 123, read-out: MIC (μg/ml) NRS123", "experimental": "as §1, §2"}, "[5]": {"tested_on": "Staphylococcus aureus NRS127", "assay": "MIC determination using agar dilution method", "assay_type": "cell-based", "settings": "MRSA / NRS 127, read-out: MIC (μg/ml) NRS127", "experimental": "as §1, §2"}, "[6]": {"tested_on": "Staphylococcus aureus NRS130", "assay": "MIC determination using agar dilution method", "assay_type": "cell-based", "settings": "MSSA / NRS 130, read-out: MIC (μg/ml) NRS130", "experimental": "as §1, §2"}, "[7]": {"tested_on": "Staphylococcus aureus NRS383", "assay": "MIC determination using agar dilution method", "assay_type": "cell-based", "settings": "MRSA / NRS 383, read-out: MIC (μg/ml) NRS383", "experimental": "as §1, §2"}, "[8]": {"tested_on": "Staphylococcus aureus NRS483", "assay": "MIC determination using agar dilution method", "assay_type": "cell-based", "settings": "MRSA / NRS 483, read-out: MIC (μg/ml) NRS483", "experimental": "as §1, §2"}, "[9]": {"tested_on": "Staphylococcus aureus NRS121", "assay": "MIC determination using agar dilution method", "assay_type": "cell-based", "settings": "MRSA / NRS 121, read-out: MIC (μg/ml) NRS121", "experimental": "as §1, §2"}, "[10]": {"tested_on": "Staphylococcus aureus NRS128", "assay": "MIC determination using agar dilution method", "assay_type": "cell-based", "settings": "MSSA / NRS 128, read-out: MIC (μg/ml) NRS128", "experimental": "as §1, §2"}, "[11]": {"tested_on": "Staphylococcus aureus NRS384", "assay": "MIC determination using agar dilution method", "assay_type": "cell-based", "settings": "MRSA / NRS 384, read-out: MIC (μg/ml) NRS384", "experimental": "as §1, §2"}, "[12]": {"tested_on": "Staphylococcus aureus NRS386", "assay": "MIC determination using agar dilution method", "assay_type": "cell-based", "settings": "MRSA / NRS 386, read-out: MIC (μg/ml) NRS386", "experimental": "as §1, §2"}, "[13]": {"tested_on": "Staphylococcus aureus NRS262", "assay": "MIC determination using agar dilution method", "assay_type": "cell-based", "settings": "MSSA / NRS 262, read-out: MIC (μg/ml) NRS262", "experimental": "as §1, §2"}, "[14]": {"tested_on": "Staphylococcus aureus NRS382", "assay": "MIC determination using agar dilution method", "assay_type": "cell-based", "settings": "MRSA / NRS 382, read-out: MIC (μg/ml) NRS382", "experimental": "as §1, §2"}, "[15]": {"tested_on": "Staphylococcus aureus NRS385", "assay": "MIC determination using agar dilution method", "assay_type": "cell-based", "settings": "MRSA / NRS 385, read-out: MIC (μg/ml) NRS385", "experimental": "as §1, §2"}, "[16]": {"tested_on": "Staphylococcus aureus NRS484", "assay": "MIC determination using agar dilution method", "assay_type": "cell-based", "settings": "MRSA / NRS 484, read-out: MIC (μg/ml) NRS484", "experimental": "as §1, §2"}, "[17]": {"tested_on": "Staphylococcus aureus NRS120", "assay": "MIC determination using agar dilution method", "assay_type": "cell-based", "settings": "MRSA / NRS 120, read-out: MIC (μg/ml) NRS120", "experimental": "as §1, §2"}, "[18]": {"tested_on": "Staphylococcus aureus NRS100", "assay": "MIC determination using agar dilution method", "assay_type": "cell-based", "settings": "MRSA / NRS 100, read-out: MIC (μg/ml) NRS100", "experimental": "as §1, §2"}, "[19]": {"molecular_target": "human albumin (HSA) (Homo sapiens (Human), UniProt P02768)", "sequence (P02768 25-609)": "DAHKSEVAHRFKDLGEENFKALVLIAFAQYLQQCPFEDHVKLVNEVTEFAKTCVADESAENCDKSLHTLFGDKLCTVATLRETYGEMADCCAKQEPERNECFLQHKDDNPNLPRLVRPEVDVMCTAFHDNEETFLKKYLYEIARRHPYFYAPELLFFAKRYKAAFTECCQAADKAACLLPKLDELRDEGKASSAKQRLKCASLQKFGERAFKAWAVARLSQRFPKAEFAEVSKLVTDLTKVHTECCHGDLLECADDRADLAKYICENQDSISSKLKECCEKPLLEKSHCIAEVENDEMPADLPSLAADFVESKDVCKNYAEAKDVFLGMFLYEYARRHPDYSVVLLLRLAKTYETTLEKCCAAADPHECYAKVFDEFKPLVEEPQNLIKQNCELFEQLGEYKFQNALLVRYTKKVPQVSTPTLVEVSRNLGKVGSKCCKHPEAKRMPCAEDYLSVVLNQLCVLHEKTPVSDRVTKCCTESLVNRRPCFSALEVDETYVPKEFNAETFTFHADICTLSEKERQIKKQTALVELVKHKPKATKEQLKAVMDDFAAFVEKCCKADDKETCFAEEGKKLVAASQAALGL", "assay": "HSA binding analysis using a chiral HSA column", "assay_type": "in vitro ADME", "text": "The test system used in this analysis was an HSA chiral column.\nThe relationship between the retention time (Tr) and percentage of albumin binding (AB %) depended on the dead time (TO) and the capacity factor (k′): AB%=[k′/(k′+1)]*100\nHSA binding was classified as follows:\n75%≦AB<90%: Moderate binding"}}}
{"smiles": "O=C1CCc2cc(/C=C/C(=O)N3CC(OCc4cccs4)C3)cnc2N1", "note": "[Example 12, 6-{(1E)-3-Oxo-3-[3-(2-thienylmethoxy)azetidin-1-yl]prop-1-en-1-yl}-3,4-dihydro-1,8-naphthyridin-2(1H)-one]", "values": [{"measurement": "MIC", "setting": "[1]", "result": 4, "unit": "µg/mL"}, {"measurement": "MIC", "setting": "[2]", "result": 4, "unit": "µg/mL"}, {"measurement": "MIC", "setting": "[3]", "result": 4, "unit": "µg/mL"}, {"measurement": "MIC", "setting": "[4]", "result": 2, "unit": "µg/mL"}, {"measurement": "MIC", "setting": "[5]", "result": 2, "unit": "µg/mL"}, {"measurement": "MIC", "setting": "[6]", "result": 2, "unit": "µg/mL"}, {"measurement": "MIC", "setting": "[7]", "result": 4, "unit": "µg/mL"}, {"measurement": "MIC", "setting": "[8]", "result": 4, "unit": "µg/mL"}, {"measurement": "MIC", "setting": "[9]", "result": 2, "unit": "µg/mL"}, {"measurement": "MIC", "setting": "[10]", "result": 1, "unit": "µg/mL"}, {"measurement": "MIC", "setting": "[11]", "result": 4, "unit": "µg/mL"}, {"measurement": "MIC", "setting": "[12]", "result": 4, "unit": "µg/mL"}, {"measurement": "MIC", "setting": "[13]", "result": 4, "unit": "µg/mL"}, {"measurement": "MIC", "setting": "[14]", "result": 4, "unit": "µg/mL"}, {"measurement": "MIC", "setting": "[15]", "result": 2, "unit": "µg/mL"}, {"measurement": "MIC", "setting": "[16]", "result": 4, "unit": "µg/mL"}, {"measurement": "MIC", "setting": "[17]", "result": 2, "unit": "µg/mL"}, {"measurement": "MIC", "setting": "[18]", "result": 2, "unit": "µg/mL"}, {"measurement": "HSA Binding (%)", "setting": "[19]; AB%=[k′/(k′+1)]*100, chiral HSA column, pH 7.0", "result": 45.2, "unit": "%"}, {"measurement": "k′", "setting": "[19]; capacity factor, k′=(Tr−T0)/T0", "result": 0.826}, {"measurement": "Conclusion (HSA binding class)", "setting": "[19]; chiral HSA column", "result": "Low binding (AB<75%: Low binding)"}, {"measurement": "Tr", "setting": "[19]; retention time on chiral HSA column, pH 7.0, 37° C.", "result": 1.410, "unit": "min"}, {"measurement": "affinity in vitro to human albumin", "setting": "[19]; text summary of Table 7", "result": "low affinity"}]}
